Measurements: ChEMBL document CHEMBL1127770, “2-(1-Cyclopenten-1-yl)-2-[2-(dimethylamino)ethyl]-5-(E)-benzylidene cyclopentanone hydrochlorides: a new series of moderate cytotoxic agents” (1994)

Test system: Panel (Carcinoma cell lines)
Experiment: Cytotoxic activity against human cancer cell lines was determined
Format: functional

| Compound | GI50 | LC50 | Log TCI |
| --- | --- | --- | --- |
| CN(C)CCC1(C2=CCCC2)CC/C(=C\c2ccccc2Cl)C1=O.Cl (stereo unspecified) | 11.7 µM | 60.3 µM | -4.56 |
| CN(C)CCC1(C2=CCCC2)CC/C(=C\c2ccc(Cl)cc2)C1=O.Cl (stereo unspecified) | 7.08 µM | 44.7 µM | -4.72 |
| COc1ccccc1/C=C1\CCC(CCN(C)C)(C2=CCCC2)C1=O.Cl (stereo unspecified) | 15.8 µM | 70.8 µM | -4.43 |
| CN(C)CCC1(C2=CCCC2)CC/C(=C\c2ccccc2)C1=O.Cl (stereo unspecified) | 16.2 µM | – | -4.49 |
| CN(C)CCC1(C2=CCCC2)CC/C(=C\c2ccc3c(c2)OCO3)C1=O.Cl (stereo unspecified) | 14.8 µM | 60.3 µM | -4.52 |
| COc1ccc(/C=C2\CCC(CCN(C)C)(C3=CCCC3)C2=O)cc1Br.Cl (stereo unspecified) | 4.47 µM | 35.5 µM | -4.89 |
| COc1cccc(/C=C2\CCC(CCN(C)C)(C3=CCCC3)C2=O)c1.Cl (stereo unspecified) | 15.5 µM | – | -4.52 |
| COc1ccc(/C=C2\CCC(CCN(C)C)(C3=CCCC3)C2=O)cc1.Cl (stereo unspecified) | 17.8 µM | – | -4.42 |
